Experimental data as given in EP0346744A1, “Condensed diazepinones, process for their preparation and medicaments containing them” (Dr. Karl Thomae GmbH, priority 1988, dated 1989).
Structures can show the parent of a compound that is named as a salt.

Key:
M2 = assay: Inhibition of vagal-stimulation bradycardia in the rat (M1/M2 selectivity, heart); format: in vivo, Ratte
Protocol: (§1) 1. M,- M2-Selektivität an der Ratte
(§2) Die angewandte Methode wurde von Hammer und Giachetti (Life Sciences 31, 2991-2998 (1982)) beschrieben. 5 Minuten nach intravenöser Injektion steigender Dosen der Substanz wurden entweder der rechte Vagus elektrisch stimuliert (Frequenz: 25 Hz; Pulsbreite: 2ms; Reizdauer: 30s; Voltzahl: supramaximal) oder 0,3 mg kg McN-A-343 in männliche THOM-Ratten intravenös injiziert. Die durch Vagusstimulation hervorgeru fene Bradykardie und der durch McN-A-343 verursachte Blutdruckanstieg wurden bestimmt. Die Dosis der Substanzen, die entweder die vagale Bradykardie (M2) oder den Blutdruckanstieg (Mi) um 50% verminderte, wurde graphisch ermittelt. Ergebnisse siehe Tabelle II.

M1 = assay: Inhibition of McN-A-343-induced blood pressure rise in the rat (M1/M2 selectivity); format: in vivo, Ratte
Protocol: as §1, §2

Herzfrequenz = assay: Inhibition of acetylcholine effect on heart rate of the guinea pig; format: in vivo, Meerschweinchen; settings: for ED50: Cavia porcellus, 5 min, anaesthetised guinea pig, 10 µg/kg acetylcholine 5 min after test substance, heart rate by ECG
Protocol: (§3) 3. Hemmung der Acetylcholinwirkung auf Blase, Bronchien und Herzfrequenz des Meerschweinchens
(§4) Am narkotisierten Meerschweinchen wurden 5 Minuten nach Gabe der Prüfsubstanz 10 µg/kg Acetylcholin intravenös als auch gleichzeitig intraarteriell injiziert. Dabei wurde die Herzfrequenz durch extrakorporale Ableitung des EKG, der Ausatemwiderstand nach Konzett-Rößler und die Kontraktion der freigelegten Harnblase direkt registriert. Für die Hemmung der Acetylcholinwirkung an den untersuchten Organen wurden Dosis-Wirkungskurven aufgenommen und daraus -log EDso-Werte bestimmt. Ergebnisse siehe Tabelle III.

Bronchien = assay: Inhibition of acetylcholine effect on bronchi of the guinea pig; format: in vivo, Meerschweinchen; settings: for ED50: Cavia porcellus, 5 min, anaesthetised guinea pig, 10 µg/kg acetylcholine 5 min after test substance, expiratory resistance (Konzett-Rößler), read-out: -log ED50 Bronchien (converted)
Protocol: as §3, §4

Blase = assay: Inhibition of acetylcholine effect on bladder of the guinea pig; format: in vivo, Meerschweinchen; settings: for ED50: Cavia porcellus, 5 min, anaesthetised guinea pig, 10 µg/kg acetylcholine 5 min after test substance, contraction of exposed urinary bladder, read-out: -log ED50 Blase (converted)
Protocol: as §3, §4

Speichelsekretion = assay: Inhibition of pilocarpine-induced salivation in the rat; format: in vivo, Ratte; settings: iv; urethane-anaesthetised rat, i.v.; salivation induced by 2 mg/kg pilocarpine s.c.; dose reducing saliva volume by 50%; read-out: -log ED50 Salivation (converted)
Protocol: 2. Speichselsekretionshemmende Wirkung an der Ratte
Nach Lavy und Mulder (Arch. int. Pharmacodyn. 178. 437-445, (1969)) erhielten mit 1,2 glkg Urethan narkotisierte männliche THOM-Ratten steigende Dosen der Substanz i.v.. Die Speichelsekretion wurde durch s.c. Gabe von 2 mg kg Pilocarpin ausgelöst. Der Speichel wurde mit Fließpapier aufgesaugt, die von ihm eingenommene Fläche alle 5 Minuten planimetrisch bestimmt. Die Dosis der Substanz, die das Speichelvolumen um 50% verminderte, wurde graphisch ermittelt. Ergebnisse siehe Tabelle II.

[1] = rat, i.v., 5 min before electrical stimulation of the right vagus, dose reducing vagal bradycardia (M2) by 50%
[2] = rat, i.v., 5 min before 0,3 mg/kg McN-A-343 i.v., dose reducing blood pressure rise (M1) by 50%

SMILES	-log ED50 Herz (M2; in vivo, iv)	-log ED50 Blutdruck (M1; in vivo)	-log ED50 Herz (Herzfrequenz; in vivo)	-log ED50 Bronchien (Bronchien; in vivo)	-log ED50 Blase (Blase; in vivo)	-log ED50 Herz (M2; [1])	-log ED50 Blutdruck (M1; [2])	ED50 (Speichelsekretion)	ED50 (Herzfrequenz)	ED50 (Bronchien)	ED50 (Blase)
CN1C2CCC1CC(OC(=O)C(CO)c1ccccc1)C2 (racemic) [G, Atropin, reference compound]	7,94 Mkg^-1	7,34 Mkg^-1	7,70 Molkg^-1	7,96 Molkg^-1	7,03 Molkg^-1						
CN(CCC1CCCCN1C)CC(=O)N1c2ccccc2C(=O)Nc2cccnc21 (centres unmarked) [A]						7,48 Mkg^-1	6,34 Mkg^-1	1.23 µmol/kg	0.0178 µmol/kg	0.0457 µmol/kg	0.12 µmol/kg
CN(CCC1CCCCCN1C)CC(=O)N1c2ccccc2C(=O)Nc2cccnc21 (centres unmarked) [B, 5.11-Dihydro-11-[[[2-(1-methyl-hexahydro-1 H-2-azepinyi)ethyl]methylamino]acetyl]-6H-pyrido-[2,3-b][1,4]benzodiazepin6-on]						7,41 Mkg^-1	6,46 Mkg^-1	3.39 µmol/kg	0.0251 µmol/kg	0.0646 µmol/kg	0.269 µmol/kg
CN(CCC1CCCCCN1C)CC(=O)N1c2cc(Cl)ccc2C(=O)Nc2cccnc21 (centres unmarked) [C, 9-Chior-5,11-dihydro-11-[[[2-(1-methyl-hexahydro-1H-2-azepinyl)ethyl]methylamino]acetyl]-6H-pyrido[2,3-b][1,4]benzodiazepin-6-on-hydrochlorid]						7,5 Mkg^-1		3.02 µmol/kg	0.055 µmol/kg	0.191 µmol/kg	0.234 µmol/kg
Cc1ccc2c(c1)C(=O)Nc1cccnc1N2C(=O)CN(C)CCC1CCCCCN1C (centres unmarked) [D, 5,11-Dihydro-8-methyl-11-[[[2-(1-methyl-hexahydro-1H-2-azepinyl)ethyl]methylamino]acetyl]-6H-pyrido[2,3-b][1,4]benzodiazepin-6-on]						7,67 Mkg^-1		0.617 µmol/kg	0.0525 µmol/kg	0.135 µmol/kg	0.347 µmol/kg
CCN(CC)CC1CCCCN1CC(=O)N1c2ccccc2C(=O)Nc2cccnc21 (centres unmarked) [E, 11-[[2-[(Diethylamino)methyl]-1-piperidinyl]acetyl]-5,11-dihydro-6H-pyrido[2,3-b][1,4]-benzodiazepin-6-on, reference compound]						6,42 Mkg^-1		10 µmol/kg			
